# Reference: patent US12133714B2, “Line excitation array detection microscopy” (BOARD OF REGENTS, THE UNIVERSITY OF TEXAS SYSTEM, priority 2018, dated 2024)
# “Also recorded” adds a separate entry of the source.
# What was measured:
# [1] = test system: polyQ40 strain C. elegans (polyglutamine mediated aggregation of YFP-labeled protein in body wall muscle cells); conditions: polyQ40 animals, earlier publication (ref. 37); cited from earlier work
# [2] = test system: polyQ40 strain C. elegans (polyglutamine mediated aggregation of YFP-labeled protein in body wall muscle cells); assay: LEAD flow cytometry imaging of polyQ aggregation model C. elegans treated with drug; format: in vivo; conditions: for number of fluorescent protein aggregates per animal (median ± standard deviation): polyQ40 animals treated at L1 stage, imaged at late L4 stage, untreated polyQ40 27±3
# Source text: The model simulates human Huntington's disease through CAG repeats in the huntingtin allele, with 35 or more repeats resulting in polyglutamine (polyQ) mediated aggregation, protein misfolding, and cellular toxicity^36. Specifically, the polyQ40 strain was imaged with 40 CAG repeats at the late L4 stage when the disease phenotype presents as aggregation of YFP-labeled protein in the body wall muscle cells. The aggregates are 1-5 μm in diameter and distributed in 3D along the length of the animal, and therefore requires relatively high resolution volumetric imaging. […] Populations of up to 300 animals were imaged. The animals moved at 0.89±0.31 m/s through the imaging channel, resulting in an imaging time of 1.07±0.26 ms per animal with the majority of the population imaged within 1 second (See FIGS. 10B, 10C). The maximum available laser power of 4 mW at the sample was sufficient to utilize the full dynamic range of our collection system. […] Despite the ultrafast scanning, C. elegans images show SNRs exceeding 500 for the center PMT elements and slightly lower SNR for the less responsive surrounding elements in accordance with the PMT specifications (see FIG. 9D). 27±3 (median±standard deviation) aggregates per animal for the polyQ40 strain were found, similar to previous findings for worms at the same stage^36. […] PolyQ40 animals were treated with either 25 or 50 μM dronedarone at the L1 stage, and were imaged at the late L4 stage (FIG. 16A). The drug reduced aggregation to 16±5 and 7±2 aggregates per animal for 25 μM and 50 μM, respectively, showing a dose response (FIG. 16B). The system's high-speed 3D imaging capability for drug screening is established by the short imaging time for the effectivity of dronedarone reaches a statistically significant level—animals treated with 25 and 50 μM dronedarone reach p=0.001 in under 0.25 s and 0.10 s, respectively (FIG. 16C). […]
smiles,measurement,setting,value
CCCCc1oc2ccc(NS(C)(=O)=O)cc2c1C(=O)c1ccc(OCCCN(CCCC)CCCC)cc1 [dronedarone],"effect on formation of aggregates, previously observed (in words)",[1],prevents the formation of aggregates in the polyQ40 animals
same,number of fluorescent protein aggregates per animal (median ± standard deviation),[2]; 25 μM,16±5 aggregates per animal
same,number of fluorescent protein aggregates per animal (median ± standard deviation),[2]; 50 μM,7±2 aggregates per animal
same,effect on formation of protein aggregates (in words),"[2]; polyQ40 animals, 25 and 50 μM, LEAD imaging",prevents the formation of protein aggregates with a dose response; also recorded: can reduce aggregation with a dose response
